In the test the test system is MV-4-11 cells. The test is described as follows: Gene expression microarray analysis (Affymetrix PrimeView) and GSEA. Type of test: cell-based, human. Further details: RFU PODN (11730768_x_at) / Fold change /veh PODN (11730768_x_at) / RFU LINC00158 (11744669_a_at) / Fold change /veh LINC00158 (11744669_a_at) / RFU DUSP10 (11751237_a_at) / Fold change /veh DUSP10 (11751237_a_at) / RFU ID3 (11757404_x_at) / Fold change /veh ID3 (11757404_x_at) / RFU PLEKHG5 (11737974_s_at) / Fold change /veh PLEKHG5 (11737974_s_at) / RFU LRRC4B (11730491_at) / Fold change /veh LRRC4B (11730491_at) / RFU GIMAP4 (11747438_a_at) / Fold change /veh GIMAP4 (11747438_a_at) / RFU KRT8 (11758183_x_at) / Fold change /veh KRT8 (11758183_x_at) / RFU CNN1 (11734310_a_at) / Fold change /veh CNN1 (11734310_a_at) / RFU VPS37D (11726825_at) / Fold change /veh VPS37D (11726825_at) / RFU C10orf10 (11716522_x_at) / Fold change /veh C10orf10 (11716522_x_at) / RFU KIR2DL2 /// KIR2DL4 /// KIR2DL5A /// KIR2DL5B /// KIR2DS1 /// KIR2DS2 /// KIR2DS3 /// KIR2DS4 /// KIR3DL3 /// KIR3DL3 /// KIR3DS1 (11738374_at) / Fold change /veh KIR2DL2 /// KIR2DL4 /// KIR2DL5A /// KIR2DL5B /// KIR2DS1 /// KIR2DS2 /// KIR2DS3 /// KIR2DS4 /// KIR3DL3 /// KIR3DL3 /// KIR3DS1 (11738374_at) / RFU C1QL1 (11718748_at) / Fold change /veh C1QL1 (11718748_at) / RFU TMPRSS4 (11747572_a_at) / Fold change /veh TMPRSS4 (11747572_a_at) / RFU HAMP (11756126_x_at) / Fold change /veh HAMP (11756126_x_at) / RFU RNFT2 (11725882_a_at) / Fold change /veh RNFT2 (11725882_a_at) / RFU NR4A2 (11747474_a_at) / Fold change /veh NR4A2 (11747474_a_at) / RFU ABCC12 (11746883_a_at) / Fold change /veh ABCC12 (11746883_a_at) / RFU TMEM136 (11760407_x_at) / Fold change /veh TMEM136 (11760407_x_at) / RFU CLDN22 /// WWC2 (11732394_at) / Fold change /veh CLDN22 /// WWC2 (11732394_at) / RFU HLA-DPB1 (11760878_x_at) / Fold change /veh HLA-DPB1 (11760878_x_at) / RFU SPINT1 (11716480_a_at) / Fold change /veh SPINT1 (11716480_a_at) / RFU GAP43 (11754022_s_at) / Fold change /veh GAP43 (11754022_s_at) / RFU A4GNT (11735810_at) / Fold change /veh A4GNT (11735810_at) / RFU PRB3 (11715151_x_at) / Fold change /veh PRB3 (11715151_x_at) / RFU TUBB4B (11761932_at) / Fold change /veh TUBB4B (11761932_at) / RFU CAPN14 (11732068_a_at) / Fold change /veh CAPN14 (11732068_a_at) / RFU TMCC2 (11721928_a_at) / Fold change /veh TMCC2 (11721928_a_at) / RFU IRGQ (11745062_a_at) / Fold change /veh IRGQ (11745062_a_at) / RFU FAM174B (11720279_a_at) / Fold change /veh FAM174B (11720279_a_at) / RFU TMPRSS4 (11748680_a_at) / Fold change /veh TMPRSS4 (11748680_a_at) / RFU FAM212B (11763350_a_at) / Fold change /veh FAM212B (11763350_a_at) / RFU PLEKHG5 (11743358_a_at) / Fold change /veh PLEKHG5 (11743358_a_at) / RFU ZSCAN30 (11745921_a_at) / Fold change /veh ZSCAN30 (11745921_a_at) / RFU CMKLR1 (11741424_a_at) / Fold change /veh CMKLR1 (11741424_a_at) / RFU LOC101060620 /// MAPK8IP1 (11723275_at) / Fold change /veh LOC101060620 /// MAPK8IP1 (11723275_at) / RFU SPTSSB (11747773_x_at) / Fold change /veh SPTSSB (11747773_x_at) / RFU PRSS12 (11739890_at) / Fold change /veh PRSS12 (11739890_at) / RFU BIN1 (11741810_x_at) / Fold change /veh BIN1 (11741810_x_at) / RFU WNT11 (11732464_a_at) / Fold change /veh WNT11 (11732464_a_at) / RFU C10orf10 (11716521_a_at) / Fold change /veh C10orf10 (11716521_a_at) / RFU C5orf56 (11738089_at) / Fold change /veh C5orf56 (11738089_at) / RFU CYB561 (11721691_x_at) / Fold change /veh CYB561 (11721691_x_at) / RFU ANKRD19P (11752326_a_at) / Fold change /veh ANKRD19P (11752326_a_at) / RFU OR2T12 /// OR2T33 /// OR2T8 (11738714_s_at) / Fold change /veh OR2T12 /// OR2T33 /// OR2T8 (11738714_s_at) / RFU VCAN (11748164_a_at) / Fold change /veh VCAN (11748164_a_at) / RFU JSRP1 (11732532_at) / Fold change /veh JSRP1 (11732532_at) / RFU KRTAP10-11 (11738290_x_at) / Fold change /veh KRTAP10-11 (11738290_x_at) / RFU MYO3A (11730013_a_at) / Fold change /veh MYO3A (11730013_a_at) / RFU EBF3 (11725865_a_at) / Fold change /veh EBF3 (11725865_a_at) / RFU CAMK2N1 (11719241_x_at) / Fold change /veh CAMK2N1 (11719241_x_at) / RFU C5orf56 (11738088_a_at) / Fold change /veh C5orf56 (11738088_a_at) / RFU OLFML3 (11715873_a_at) / Fold change /veh OLFML3 (11715873_a_at) / RFU LOC100653217 /// NTM (11731650_a_at) / Fold change /veh LOC100653217 /// NTM (11731650_a_at) / RFU MAPK11 (11762145_a_at) / Fold change /veh MAPK11 (11762145_a_at) / RFU FIZ1 (11724087_x_at) / Fold change /veh FIZ1 (11724087_x_at) / RFU OASL (11726364_x_at) / Fold change /veh OASL (11726364_x_at) / RFU SOX15 (11748057_x_at) / Fold change /veh SOX15 (11748057_x_at) / RFU CD79A (11719716_a_at) / Fold change /veh CD79A (11719716_a_at) / RFU HIST1H1D (11736915_at) / Fold change /veh HIST1H1D (11736915_at) / RFU CASKIN2 (11723855_a_at) / Fold change /veh CASKIN2 (11723855_a_at) / RFU LOC730098 (11760151_x_at) / Fold change /veh LOC730098 (11760151_x_at) / RFU OR4N2 (11742367_at) / Fold change /veh OR4N2 (11742367_at) / RFU PRRT2 (11749266_a_at) / Fold change /veh PRRT2 (11749266_a_at) / RFU SNX32 (11753110_a_at) / Fold change /veh SNX32 (11753110_a_at) / RFU CDHR5 (11726645_a_at) / Fold change /veh CDHR5 (11726645_a_at) / RFU RCAN1 (11760418_a_at) / Fold change /veh RCAN1 (11760418_a_at) / RFU FAM167A (11723789_a_at) / Fold change /veh FAM167A (11723789_a_at) / RFU FAM26E (11764081_at) / Fold change /veh FAM26E (11764081_at) / RFU ISYNA1 (11749810_s_at) / Fold change /veh ISYNA1 (11749810_s_at) / RFU ACY1 (11761880_at) / Fold change /veh ACY1 (11761880_at) / RFU 11764098_at / Fold change /veh 11764098_at / RFU SAMD14 (11745864_x_at) / Fold change /veh SAMD14 (11745864_x_at) / RFU NPB (11741838_a_at) / Fold change /veh NPB (11741838_a_at) / RFU TMPRSS6 (11731388_a_at) / Fold change /veh TMPRSS6 (11731388_a_at) / RFU KRTAP10-2 (11738614_at) / Fold change /veh KRTAP10-2 (11738614_at) / RFU ARHGAP8 /// PRR5-ARHGAP8 (11727945_x_at) / Fold change /veh ARHGAP8 /// PRR5-ARHGAP8 (11727945_x_at) / RFU KRTAP5-7 /// NADSYN1 (11734609_at) / Fold change /veh KRTAP5-7 /// NADSYN1 (11734609_at) / RFU RASL12 (11751679_a_at) / Fold change /veh RASL12 (11751679_a_at) / RFU CDKN2B (11736163_a_at) / Fold change /veh CDKN2B (11736163_a_at) / RFU PRF1 (11729649_at) / Fold change /veh PRF1 (11729649_at) / RFU, ZNF638 /// ZNF638-IT1 / Fold change vs veh, ZNF638 /// ZNF638-IT1 / RFU, PANK3 / Fold change vs veh, PANK3 / RFU, SH3YL1 / Fold change vs veh, SH3YL1 / RFU, ZEB2 / Fold change vs veh, ZEB2 / RFU, NRIP1 / Fold change vs veh, NRIP1 / RFU, PTTG1IP / Fold change vs veh, PTTG1IP / RFU, CAPN2 / Fold change vs veh, CAPN2 / RFU, MED14 / Fold change vs veh, MED14 / RFU, SNORA58 / Fold change vs veh, SNORA58 / RFU, C1orf63 / Fold change vs veh, C1orf63 / RFU, LRRFIP1 / Fold change vs veh, LRRFIP1 / RFU, NDUFAF7 / Fold change vs veh, NDUFAF7 / RFU, SLC12A2 / Fold change vs veh, SLC12A2 / RFU, IBTK / Fold change vs veh, IBTK / RFU, ESF1 / Fold change vs veh, ESF1 / Fold change vs veh, TMEM50B / RFU, TAOK1 / Fold change vs veh, TAOK1 / RFU, ACBD3 / Fold change vs veh, ACBD3 / RFU, TMA16 / Fold change vs veh, TMA16 / RFU, RWDD3 / Fold change vs veh, RWDD3 / RFU, BCAT1 / Fold change vs veh, BCAT1 / RFU, EDEM3 / Fold change vs veh, EDEM3 / RFU, TMEM33 / Fold change vs veh, TMEM33 / RFU, WDR75 / Fold change vs veh, WDR75 / RFU, AHCTF1 / Fold change vs veh, AHCTF1 / RFU, TFRC / Fold change vs veh, TFRC / RFU, ZDHHC17 / Fold change vs veh, ZDHHC17 / RFU, NOM1 / Fold change vs veh, NOM1 / RFU, ARL8B / Fold change vs veh, ARL8B / RFU, ZBTB11 / Fold change vs veh, ZBTB11 / RFU, TAMM41 / Fold change vs veh, TAMM41 / RFU, KIAA1704 /// LOC100996395 / Fold change vs veh, KIAA1704 /// LOC100996395 / RFU, ING1 / Fold change vs veh, ING1 / RFU, TRMT61B / Fold change vs veh, TRMT61B / RFU, FUBP3 / Fold change vs veh, FUBP3 / RFU, TP53 / Fold change vs veh, TP53 / RFU, TNKS2 / Fold change vs veh, TNKS2 / RFU, ZFP14 / Fold change vs veh, ZFP14 / RFU, ACTR2 / Fold change vs veh, ACTR2 / RFU, PPP3R1 / Fold change vs veh, PPP3R1 / RFU, PIK3R1 / Fold change vs veh, PIK3R1 / RFU, HNRNPA1 / Fold change vs veh, HNRNPA1 / RFU, RNF170 / Fold change vs veh, RNF170 / RFU, ZNF28 / Fold change vs veh, ZNF28 / RFU, RNGTT / Fold change vs veh, RNGTT / RFU, OGT / Fold change vs veh, OGT / RFU, BRD1 / Fold change vs veh, BRD1 / RFU, MARS / Fold change vs veh, MARS / RFU, ZNF655 / Fold change vs veh, ZNF655 / RFU, FAHD1 / Fold change vs veh, FAHD1 / RFU, BDP1 / Fold change vs veh, BDP1 / RFU, LRRCC1 / Fold change vs veh, LRRCC1 / RFU, ARID1A / Fold change vs veh, ARID1A / RFU, ZNF146 / Fold change vs veh, ZNF146 / RFU, ZNF330 / Fold change vs veh, ZNF330 / RFU, GPN3 / Fold change vs veh, GPN3 / RFU, C9orf123 / Fold change vs veh, C9orf123 / RFU, N4BP2L2 / Fold change vs veh, N4BP2L2 / RFU, ARFIP1 / Fold change vs veh, ARFIP1 / RFU, FAM179B / Fold change vs veh, FAM179B / RFU, BCL10 / Fold change vs veh, BCL10 / RFU, UHRF1BP1L / Fold change vs veh, UHRF1BP1L / RFU, BET1 / Fold change vs veh, BET1 / RFU, CNOT2 / Fold change vs veh, CNOT2 / RFU, ZNF268 / Fold change vs veh, ZNF268 / Fold change vs veh, ZNF507 / RFU, DGCR2 / Fold change vs veh, DGCR2 / RFU, WDSUB1 / Fold change vs veh, WDSUB1 / Fold change vs veh, HSP90B1 /// MIR3652 / RFU, ADSS / Fold change vs veh, ADSS / RFU, GK / Fold change vs veh, GK / RFU, ZNF148 / Fold change vs veh, ZNF148 / RFU, TAF9 / Fold change vs veh, TAF9 / RFU, SLC1A5 / Fold change vs veh, SLC1A5 / RFU, SLMO2 / Fold change vs veh, SLMO2 / RFU, ABCC4 / Fold change vs veh, ABCC4 / RFU, LOC101060439 /// RAP1B / Fold change vs veh, LOC101060439 /// RAP1B / RFU, RFX7 / Fold change vs veh, RFX7 / RFU, GTPBP10 / Fold change vs veh, GTPBP10 / RFU, CNEP1R1 / Fold change vs veh, CNEP1R1 / RFU, BIVM-ERCC5 /// ERCC5 / Fold change vs veh, BIVM-ERCC5 /// ERCC5 / RFU, ILF3 / Fold change vs veh, ILF3 / RFU 11762660_at / Fold change /veh 11762660_at / RFU VCAN (11757783_s_at) / Fold change /veh VCAN (11757783_s_at) / RFU DDX43 (11728927_at) / Fold change /veh DDX43 (11728927_at) / RFU KRT8 (11758188_x_at) / Fold change /veh KRT8 (11758188_x_at) / RFU NKD1 (11759106_at) / Fold change /veh NKD1 (11759106_at) / RFU SRD5A1 (11742802_a_at) / Fold change /veh SRD5A1 (11742802_a_at) / RFU TPSAB1 /// TPSB2 (11721975_s_at) / Fold change /veh TPSAB1 /// TPSB2 (11721975_s_at) / RFU GSTM3 (11746129_a_at) / Fold change /veh GSTM3 (11746129_a_at) / RFU IL23R (11737362_x_at) / Fold change /veh IL23R (11737362_x_at) / RFU TMEM51 (11727254_a_at) / Fold change /veh TMEM51 (11727254_a_at) / RFU PIWIL2 (11732686_x_at) / Fold change /veh PIWIL2 (11732686_x_at) / RFU ORM1 (11744905_x_at) / Fold change /veh ORM1 (11744905_x_at) / RFU CCDC152 (11743942_at) / Fold change /veh CCDC152 (11743942_at) / RFU ECM1 (11717891_a_at) / Fold change /veh ECM1 (11717891_a_at) / RFU IL23R (11748794_a_at) / Fold change /veh IL23R (11748794_a_at) / RFU TNFAIP8L3 (11732012_x_at) / Fold change /veh TNFAIP8L3 (11732012_x_at) / RFU MBOAT4 (11741988_at) / Fold change /veh MBOAT4 (11741988_at) / RFU 11764193_at / Fold change /veh 11764193_at / RFU TMEM53 (11763286_at) / Fold change /veh TMEM53 (11763286_at) / RFU MAGEB2 (11727129_at) / Fold change /veh MAGEB2 (11727129_at) / RFU TMEM200A (11744735_a_at) / Fold change /veh TMEM200A (11744735_a_at) / RFU CCDC152 (11751479_a_at) / Fold change /veh CCDC152 (11751479_a_at) / RFU FAM211A (11726209_a_at) / Fold change /veh FAM211A (11726209_a_at) / RFU RGS16 (11746705_a_at) / Fold change /veh RGS16 (11746705_a_at) / RFU VCAN (11755009_s_at) / Fold change /veh VCAN (11755009_s_at) / RFU RHOB (11743442_s_at) / Fold change /veh RHOB (11743442_s_at) / RFU RGS16 (11720943_a_at) / Fold change /veh RGS16 (11720943_a_at) / RFU RGS16 (11720944_at) / Fold change /veh RGS16 (11720944_at) / RFU, VPS4B / Fold change vs veh, VPS4B / RFU, CREB1 / Fold change vs veh, CREB1 / RFU, DNAJC13 / Fold change vs veh, DNAJC13 / RFU, GNAQ / Fold change vs veh, GNAQ / RFU, CDK5R1 / Fold change vs veh, CDK5R1 / RFU, ZRANB3 / Fold change vs veh, ZRANB3 / RFU, CUL4A / Fold change vs veh, CUL4A / RFU, CCNY / Fold change vs veh, CCNY / RFU, UFL1 / Fold change vs veh, UFL1 / RFU, COG3 / Fold change vs veh, COG3 / RFU, DIAPH2 / Fold change vs veh, DIAPH2 / RFU, SKA2 / Fold change vs veh, SKA2 / RFU, AFF3 / Fold change vs veh, AFF3 / RFU, LMF1 / Fold change vs veh, LMF1 / RFU, IPO11 / Fold change vs veh, IPO11 / RFU, DFFB / Fold change vs veh, DFFB / RFU, FOXP1 / Fold change vs veh, FOXP1 / RFU, CARD8 / Fold change vs veh, CARD8 / RFU, STRN3 / Fold change vs veh, STRN3 / RFU, ADK / Fold change vs veh, ADK / RFU, RASSF2 / Fold change vs veh, RASSF2 / RFU, WIPF1 / Fold change vs veh, WIPF1 / RFU, LARP1B / Fold change vs veh, LARP1B / RFU, RASA1 / Fold change vs veh, RASA1 / RFU, RB1 / Fold change vs veh, RB1 / RFU, PPFIA1 / Fold change vs veh, PPFIA1 / RFU, MAT2A / Fold change vs veh, MAT2A / RFU, CCT5 / Fold change vs veh, CCT5 / RFU, WDR92 / Fold change vs veh, WDR92 / RFU, CUX1 / Fold change vs veh, CUX1 / RFU, TTC7A / Fold change vs veh, TTC7A / RFU, TMEM135 / Fold change vs veh, TMEM135 / RFU, DEPTOR / Fold change vs veh, DEPTOR / RFU, CPM / Fold change vs veh, CPM / RFU, DNAJB6 / Fold change vs veh, DNAJB6 / RFU, CACNA2D3 / Fold change vs veh, CACNA2D3 / RFU, DTX4 / Fold change vs veh, DTX4 / RFU, TFCP2 / Fold change vs veh, TFCP2 / RFU, GMCL1 /// GMCL1P1 / Fold change vs veh, GMCL1 /// GMCL1P1 / RFU, AEBP2 / Fold change vs veh, AEBP2 / RFU, SNHG1 /// SNORD22 /// SNORD25 /// SNORD26 /// SNORD27 /// SNORD28 /// SNORD29 /// SNORD31 / Fold change vs veh, SNHG1 /// SNORD22 /// SNORD25 /// SNORD26 /// SNORD27 /// SNORD28 /// SNORD29 /// SNORD31 / Fold change (Aza/veh), C12orf56 (ProbeSet 11735607_a_at) / Fold change (ACY-1035/veh), C12orf56 (ProbeSet 11735607_a_at) / Fold change (Aza/veh), FGFR1OP (ProbeSet 11751329_s_at) / Fold change (ACY-1035/veh), FGFR1OP (ProbeSet 11751329_s_at) / Fold change (Aza/veh), VPS36 (ProbeSet 11739960_a_at) / Fold change (ACY-1035/veh), VPS36 (ProbeSet 11739960_a_at) / RFU SYPL1 (11715823_x_at) / Fold change /veh SYPL1 (11715823_x_at) / RFU IGFBP7 (11715501_s_at) / Fold change /veh IGFBP7 (11715501_s_at) / RFU REEP3 (11722064_at) / Fold change /veh REEP3 (11722064_at) / RFU IGLL1 (11728026_x_at) / Fold change /veh IGLL1 (11728026_x_at): dose or concentration left out as unconfirmed. Particulars: MV-4-11 cells, 48 hours.

The values that follow come from paper PMC5218480 (PLoS ONE, 2017).

As for `Nc1ncn([C@@H]2O[C@H](CO)[C@@H](O)[C@H]2O)c(=O)n1` [azacitidine], the “RFU JSRP1 (11732532_at)” value worked out at 47.93 RFU.
